Measured values published in patent publication US6458767B1, “Use of peptides inhibitory for thrombospondin dependent TGF-β activation in the treatment of kidney disease” (The UAB Research Foundation, priority 1994, dated 2002).
Ends that are not written are not given here.

Key:
[1] = test system: rats with anti-Thy1 disease; assay: Glomerular MC-proliferation, MC-activation and macrophage influx in the anti-Thy1 model; assay type: in vivo, rat
From the text: (§1) Experimental design. Experimental mesangial proliferative glomerulonephritis was induced using the monoclonal mouse anti-Thy1 antibody OX-7. Peptides were continuously infused intravenously (i.v.) via jugular vein using osmotic minipumps starting sixteen hours after disease induction. The effects of the hexapeptide AAWSHW (SEQ ID NO:22) (that interferes with the TSP1-mature TGF-β interaction) or the LSKL-peptide (SEQ ID NO:21) (that blocks the TSP1-LAP interaction) were compared to a control peptide (SLLK) in the anti-Thy1 model. Tissues from different time points (days three, five, eight) of this experiment were analyzed in regard to mesangiolysis, macrophage-influx, MC-proliferation, MC-activation, microaneurysm and matrix formation, GEN proliferation, TSP1, TGF-β1 and 2, as well as TGF-βRI and RII. Functional parameters such as blood pressure, proteinuria, and creatinine clearance were also determined. On day eight, glomerular secretion of active TGF-β was determined in individual animals by incubating isolated glomeruli for twenty-four hours in DMEM and measuring TGF-β activity in glomerular supernatants using the NRK-bioassay.
(§2) Animal model Experimental mesangial proliferative glomerulonephritis (anti-Thy1 model) was induced in Sprague Dawley rats (180-200 g; Charles River, Sulzfeld, Germany) by a single injection of 1 mg/kg of the mouse monoclonal anti-Thy1 antibody OX-7 (European Collection of Animal Cell Culture, Salisbury, England). In this animal model, complete anti-Thy1 antibody binding occurs within an hour (Johnson et al. (1991) Am. J. Pathol. 138 (2), 313-21). To avoid potential interference of the LAP-peptides with anti-Thy1 antibody binding and subsequent mesangiolysis, the peptide treatment was started sixteen hours after disease induction, when binding of the anti-Thy1 antibody to the mesangium and subsequent mesangiolysis had already occurred. The peptides used in this study were synthesized, purified, and analyzed as described elsewhere (Crawford et al. (1998) Cell 93, 1159-1170).
(§3) Renal biopsies as described previously (Hugo et al. (1997) J. Clin. Invest. 100, 786-794) were performed on days three and five, and the experiment was finished on day eight. To determine DNA incorporation into proliferating cells, each animal was injected intravenously with BrdU (50 mg/kg bw) ninety minutes before the second survival biopsy was taken on day five (peak of MC proliferation). Renal biopsies were fixed in methyl Carnoy's, 10% formalin and/or OCT and snap frozen. A twenty-four hour urine collection for measurement of protein and creatinine was done from day seven to eight, when maximal proteinuria occurs in this model (unpublished observation). Blood pressure measurements were done twice before and twice after disease induction. In renal biopsies, the frequency of glomerular microaneurysms, the number of infiltrating macrophages, the number of proliferating MC, the expression of the contractile protein α-sm actin as a marker of MC-activation, and the expression of TGF-β1, TGF-β2, TGF-βRI, TGF-βRII, TSP1, as well as of extracellular matrix proteins such as collagen I, collagen IV and fibronectin were determined. For TGF-β activity measurements in individual animals on day eight, glomeruli were isolated by differential sieving (Johnson et al. (1991) Am. J. Pathol. 138 (2), 313-21) and counted using five aliquots. Glomerular isolates were discarded if purity was less than 95%. 8000 glomeruli/ml were incubated in DMEM at 37° C. After a twenty-four hour incubation period, glomerular supernatants were stored by −70° C. until TGF-β activity measurements were done.
(§4) Peptide infusion. All peptides (at a concentration of 3.5 mg/ml) were continuously infused for seven days via a catheter in the right jugular vein using osmotic minipumps (Alzet Corp./Charles River, Sulzfeld, Germany). […]

[2] = test system: rats with anti-Thy1 disease; assay: Functional parameters (proteinuria, creatinine clearance, blood urea nitrogen, systolic blood pressure) in the anti-Thy1 model; assay type: in vivo, rat; conditions: for Proteinuria (mg/24 hours): day 8 (urine collection day seven to eight); for twenty-four hour proteinuria: days seven to eight; for Blood urea nitrogen: rat, in vivo
From the text: as §1, §2, §3, §4

[3] = test system: rats with anti-Thy1 disease; assay: Mesangiolysis, microaneurysm formation and GEN-proliferation in the anti-Thy1 model; assay type: in vivo, rat; conditions: for Glomerular GEN-proliferation (double staining for RECA-1 and PCNA) / mesangiolysis scores: day three; for mesangiolysis scores: scale 0-IV
From the text: as §1, §2, §3, §4

[4] = test system: activation of TGF-β by TSP1; conditions: background, literature; cited from earlier work
TGF-β = assay: Glomerular secretion of active TGF-β (NRK-bioassay of supernatants of isolated glomeruli) in anti-Thy1 rats; assay type: in vivo, rat; conditions: for Active TGF-β (colonies > 62 um): day 8 glomeruli, 24 h supernatant, NRK-bioassay, continuous i.v. peptide infusion
From the text: as §1, §2
as §3, with “After a twenty-four hour incubation period, glomerular supernatants were stored by −70° C. until TGF-β activity measurements were done.” left out

[5] = test system: rats with anti-Thy1 disease; assay: Glomerular immunostaining score for TGF-β1, TGF-β2, TGF-βRI, TGF-βRII and TSP1 in the anti-Thy1 model; assay type: in vivo, rat
From the text: as §1, §2, §3, §4

[6] = test system: rats with anti-Thy1 disease; assay: Glomerular extracellular matrix formation (Masson's Trichrome, collagen I, collagen IV, fibronectin stains) in the anti-Thy1 model; assay type: in vivo, rat
From the text: as §1, §2, §3, §4

## AAWSHW
[1]; day 3
  MC-activation α-sm actin (score 0-4): 1.1 ± 0.5 score 0-4
  MC-proliferation (OX-7 + /PCNA + cells/glomerulus): 3.1 ± 0.8 cells/glomerulus
  Macrophages (ED-1 + cells/glomerulus): 3.0 ± 1.8 cells/glomerulus
[1]; day 5
  MC-activation α-sm actin (score 0-4): 2.8 ± 0.5 score 0-4
  MC-proliferation (OX-7 + /BrdU + cells/glomerulus): 4.6 ± 1.9 cells/glomerulus
  MC-proliferation (OX-7 + /PCNA + cells/glomerulus): 8.5 ± 1.6 cells/glomerulus
  Macrophages (ED-1 + cells/glomerulus): 0.9 ± 0.5 cells/glomerulus
[1]; day 8
  MC-activation α-sm actin (score 0-4): 2.5 ± 0.4 score 0-4
  MC-proliferation (OX-7 + /PCNA + cells/glomerulus): 3.9 ± 0.8 cells/glomerulus
  Macrophages (ED-1 + cells/glomerulus): 0.7 ± 0.3 cells/glomerulus
[1]; in words
  MC activation (de novo expression of α-sm-actin): did not significantly alter
[2]
  Proteinuria (mg/24 hours): 51 ± 50 mg/24 hours
  twenty-four hour proteinuria: 51±50 mg/twenty-four hours
  Blood urea nitrogen: 23.6 ± 7.1 mg/dL
[3]; day 3
  Glomerular Microaneurysm (in percent): 12.2 ± 11.6%
[3]; day 5
  Glomerular Microaneurysm (in percent): 15.5 ± 11.8%
[3]; day 8
  Glomerular Microaneurysm (in percent): 1.6 ± 1.8%
[3]
  Glomerular GEN-proliferation (double staining for RECA-1 and PCNA): 1.8±0.6
  mesangiolysis scores: 2.5±0.4
[4]
  block of activation of TGF-β by TSP1: able to block activation of TGF-β by TSP1
TGF-β
  Active TGF-β (colonies > 62 um): 220 ± 70 colonies > 62 um
TGF-β; day eight glomeruli, p<0.01
  glomerular secretion of active TGF-β compared to control peptide (SLLK) treated rats: markedly reduced
[5]; day 3
  TGF-β1 (score 0-4): 0.4 ± 0.2 score 0-4
  TGF-β2 (score 0-4): 0.4 ± 0.3 score 0-4
  TGF-βRI (score 0-4): 0.5 ± 0.3 score 0-4
  TGF-βRII (score 0-4): 0.5 ± 0.5 score 0-4
  TSP I (score 0-4): 0.6 ± 0.2 score 0-4
[5]; day 5
  TGF-β1 (score 0-4): 1.9 ± 0.9 score 0-4
  TGF-β2 (score 0-4): 1.1 ± 0.7 score 0-4
  TGF-βRI (score 0-4): 1.9 ± 0.4 score 0-4
  TGF-βRII (score 0-4): 1.4 ± 0.6 score 0-4
  TSP I (score 0-4): 1.5 ± 0.9 score 0-4
[5]; day 8
  TGF-β1 (score 0-4): 1.6 ± 1.1 score 0-4
  TGF-β2 (score 0-4): 0.5 ± 0.4 score 0-4
  TGF-βRI (score 0-4): 1.6 ± 0.6 score 0-4
  TGF-βRII (score 0-4): 1.2 ± 0.5 score 0-4
  TSP I (score 0-4): 0.8 ± 0.7 score 0-4
[6]; day 3
  Matrix Collagen 1 (score 0-4): 0.1 ± 0.1 score 0-4
  Matrix Collagen IV (score 0-4): 1.0 ± 0.5 score 0-4
  Matrix Fibronectin (score 0-4): 1.3 ± 0.3 score 0-4
  Matrix Trichrome (score 0-3): 0.5 ± 0.3 score 0-3
[6]; day 5
  Matrix Collagen 1 (score 0-4): 0.8 ± 0.6 score 0-4
  Matrix Collagen IV (score 0-4): 2.1 ± 0.6 score 0-4
  Matrix Fibronectin (score 0-4): 1.9 ± 1.2 score 0-4
  Matrix Trichrome (score 0-3): 0.9 ± 0.3 score 0-3
[6]; day 8
  Matrix Collagen 1 (score 0-4): 1.0 ± 0.6 score 0-4
  Matrix Collagen IV (score 0-4): 1.3 ± 0.5 score 0-4
  Matrix Fibronectin (score 0-4): 1.2 ± 0.8 score 0-4
  Matrix Trichrome (score 0-3): 1.4 ± 0.4 score 0-3
[6]; day eight, in words
  extracellular matrix formation as determined by Trichrome staining: markedly suppressed
[6]; time course of anti-Thy1 disease, in words
  glomerular accumulation of collagen I, collagen IV and fibronectin by immunohistochemistry: reduced glomerular accumulation of all three extracellular matrix proteins

## control/SLLK: control peptide SLLK (SEQ ID NO:47), group 1 [reference compound]
[1]; day 3
  MC-activation α-sm actin (score 0-4): 0.8 ± 0.4 score 0-4
  MC-proliferation (OX-7 + /PCNA + cells/glomerulus): 3.6 ± 0.7 cells/glomerulus
  Macrophages (ED-1 + cells/glomerulus): 4.5 ± 1.6 cells/glomerulus
[1]; day 5
  MC-activation α-sm actin (score 0-4): 2.9 ± 0.3 score 0-4
  MC-proliferation (OX-7 + /BrdU + cells/glomerulus): 4.7 ± 0.8 cells/glomerulus
  MC-proliferation (OX-7 + /PCNA + cells/glomerulus): 9.1 ± 1.5 cells/glomerulus
  Macrophages (ED-1 + cells/glomerulus): 1.9 ± 0.5 cells/glomerulus
[1]; day 8
  MC-activation α-sm actin (score 0-4): 2.9 ± 0.5 score 0-4
  MC-proliferation (OX-7 + /PCNA + cells/glomerulus): 4.2 ± 0.5 cells/glomerulus
  Macrophages (ED-1 + cells/glomerulus): 1.5 ± 0.5 cells/glomerulus
[2]
  Proteinuria (mg/24 hours): 83 ± 40 mg/24 hours
  twenty-four hour proteinuria: 83±40 mg/twenty-four hours
  Blood urea nitrogen: 33.2 ± 12.7 mg/dL
[3]; day 3
  Glomerular Microaneurysm (in percent): 34.0 ± 30.1%
[3]; day 5
  Glomerular Microaneurysm (in percent): 20.6 ± 22.7%
[3]; day 8
  Glomerular Microaneurysm (in percent): 6.0 ± 5.9%
[3]
  Glomerular GEN-proliferation (double staining for RECA-1 and PCNA): 2.2 cells/glomerular cross-section
  mesangiolysis scores: 2.7±0.5
TGF-β
  Active TGF-β (colonies > 62 um): 380 ± 60 colonies > 62 um
[5]; day 3
  TGF-β1 (score 0-4): 0.2 ± 0.2 score 0-4
  TGF-β2 (score 0-4): 0.2 ± 0.1 score 0-4
  TGF-βRI (score 0-4): 0.4 ± 0.2 score 0-4
  TGF-βRII (score 0-4): 0.4 ± 0.3 score 0-4
  TSP I (score 0-4): 0.2 ± 0.2 score 0-4
[5]; day 5
  TGF-β1 (score 0-4): 2.6 ± 0.6 score 0-4
  TGF-β2 (score 0-4): 1.6 ± 0.4 score 0-4
  TGF-βRI (score 0-4): 1.9 ± 0.5 score 0-4
  TGF-βRII (score 0-4): 1.9 ± 0.5 score 0-4
  TSP I (score 0-4): 2.0 ± 0.6 score 0-4
[5]; day 8
  TGF-β1 (score 0-4): 1.5 ± 0.8 score 0-4
  TGF-β2 (score 0-4): 1.3 ± 0.8 score 0-4
  TGF-βRI (score 0-4): 1.8 ± 0.9 score 0-4
  TGF-βRII (score 0-4): 1.3 ± 0.8 score 0-4
  TSP I (score 0-4): 0.6 ± 0.3 score 0-4
[6]; day 3
  Matrix Collagen 1 (score 0-4): 0.1 ± 0.1 score 0-4
  Matrix Collagen IV (score 0-4): 1.2 ± 0.4 score 0-4
  Matrix Fibronectin (score 0-4): 1.5 ± 0.8 score 0-4
  Matrix Trichrome (score 0-3): 0.7 ± 0.3 score 0-3
[6]; day 5
  Matrix Collagen 1 (score 0-4): 2.3 ± 0.5 score 0-4
  Matrix Collagen IV (score 0-4): 3.3 ± 0.4 score 0-4
  Matrix Fibronectin (score 0-4): 3.2 ± 0.4 score 0-4
  Matrix Trichrome (score 0-3): 1.5 ± 0.2 score 0-3
[6]; day 8
  Matrix Collagen 1 (score 0-4): 2.0 ± 0.5 score 0-4
  Matrix Collagen IV (score 0-4): 2.6 ± 0.6 score 0-4
  Matrix Fibronectin (score 0-4): 2.3 ± 0.9 score 0-4
  Matrix Trichrome (score 0-3): 2.3 ± 0.4 score 0-3
